From PMC5719405, “Sex-related pharmacokinetic differences and mechanisms of metapristone (RU486 metabolite)” (Scientific Reports, 2017) come the findings set out here.

The target of data set [1] is human CYP3A4 (Homo sapiens, UniProt P08684). Description: Metapristone metabolism by cDNA-expressed recombinant human CYP3A4. The settings on record: 9 µM.
Data set [2] deals with T1, human CYP1A2 (Homo sapiens, UniProt P05177).
T1 construct: made in house; host or cells: insect cells
T1 sequence (P05177 1-516): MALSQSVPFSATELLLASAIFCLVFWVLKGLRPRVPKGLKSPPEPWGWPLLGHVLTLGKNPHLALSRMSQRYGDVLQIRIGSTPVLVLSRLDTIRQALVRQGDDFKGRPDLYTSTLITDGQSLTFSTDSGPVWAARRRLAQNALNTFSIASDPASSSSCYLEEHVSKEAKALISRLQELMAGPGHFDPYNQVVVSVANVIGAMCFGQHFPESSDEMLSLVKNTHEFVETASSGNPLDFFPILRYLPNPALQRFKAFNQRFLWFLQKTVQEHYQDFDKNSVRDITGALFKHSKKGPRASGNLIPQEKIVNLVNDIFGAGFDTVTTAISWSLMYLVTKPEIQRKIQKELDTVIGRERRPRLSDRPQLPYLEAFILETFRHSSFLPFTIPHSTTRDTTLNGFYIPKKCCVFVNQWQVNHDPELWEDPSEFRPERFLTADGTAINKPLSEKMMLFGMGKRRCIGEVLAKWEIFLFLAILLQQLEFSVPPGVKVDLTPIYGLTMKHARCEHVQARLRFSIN
Description: Metapristone metabolism by cDNA-expressed recombinant human CYP1A2. The settings on record: 9 µM. It counts as in vitro ADME. As to the method: To identify CYP450 isomers which were responsible for the sex different metabolism of metapristone, both CYP450 inhibitors and cDNA-expressed recombinant human CYPs were used[11]. […] The reactions of the control groups with control rat liver microsomes (heated to 80 °C for 5 min to inactivate enzymes) to inactivate enzymes or without NADPH were also included. […] The cDNA-expressed recombinant human CYPs were prepared from insect cells transfected with cDNAs encoding for human CYP1A2 or CYP3A4. […] Each reaction was then started by the addition of metapristone (9 µM) with subsequent mixing of each sample by inversion. […] Metapristone were identified by the LC/MS/MS method. Peak areas formed were used for quantitative analyses. Control incubation mixtures included mixtures without inhibitors, and mixtures with untransfected insect cell microsomes used as microsomal control, and mixtures that contained methanol instead of inhibitor (methanol control). Quantitative analyses were performed by comparing the peak areas of the inhibition reactions to their respective methanol controls. The total organic solvent content of the in vitro reaction mixtures was less than 2%.

Data set [3] is described as follows: Tissue distribution study with metapristone. To be noted: female rats, 45 mg/kg single oral dose. It counts as in vivo, SD rats. As to the method:
Sixteen SD rats (four females/group) were dosed by gavage with 45 mg/kg of metapristone to carry out tissue distribution study, as we previously described. Rats were sacrificed at 6 h and 24 h after dosing in order to collect blood, heart, liver, spleen, lung, kidney, brain, intestine and ovary for quantitative analysis of metapristone concentrations. Tissue samples were immediately washed in normal saline to remove the blood or content, and blotted dry with filter paper. Tissue samples (0.2 g) were individually homogenized with normal saline (0.8 mL). Tissue homogenates (100 µL) were processed as the plasma samples. The detailed method validation for analysis of metapristone in plasma, tissue homogenates, and liver microsomal samples is provided in the Supplementary materials.

Structures are written as SMILES.

Chain of human CYP3A4 (P08684 whole entry): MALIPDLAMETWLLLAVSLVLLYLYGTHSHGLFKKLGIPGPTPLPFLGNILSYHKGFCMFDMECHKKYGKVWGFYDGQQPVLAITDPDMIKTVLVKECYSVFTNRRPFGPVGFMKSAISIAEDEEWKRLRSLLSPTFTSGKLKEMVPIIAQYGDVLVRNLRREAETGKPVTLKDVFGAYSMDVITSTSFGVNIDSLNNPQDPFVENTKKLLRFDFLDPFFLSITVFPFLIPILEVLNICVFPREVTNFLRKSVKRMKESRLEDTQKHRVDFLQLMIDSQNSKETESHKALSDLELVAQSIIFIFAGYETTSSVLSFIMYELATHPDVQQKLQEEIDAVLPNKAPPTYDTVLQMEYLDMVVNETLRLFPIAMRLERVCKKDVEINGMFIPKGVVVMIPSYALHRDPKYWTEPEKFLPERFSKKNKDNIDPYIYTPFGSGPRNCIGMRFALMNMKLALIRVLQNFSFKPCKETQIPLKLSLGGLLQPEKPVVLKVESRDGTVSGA

Regarding `CC#C[C@]1(O)CC[C@H]2[C@@H]3CCC4=CC(=O)CCC4=C3[C@@H](c3ccc(NC)cc3)C[C@@]21C` [metapristone, N-monodemethyl mifepristone], in data set [1] (120 min incubation with CYP3A4, absence of inhibitor), the metapristone remaining is 16.3%. Also, the metapristone unchanged in data set [1] (120 min incubation with CYP3A4, plus ketoconazole 10 µM) was 72.9%. Further, the metapristone remained in data set [2] (120 min incubation with CYP1A2, absence of inhibitor) is given as 47.9%. Further, the metapristone survived in data set [2] (120 min incubation with CYP1A2, plus α-naphthoflavone 10 µM) turned out to be 89.9%. The compound further displayed a concentration at 6 h in data set [3] (Sprague-Dawley, rat, liver, 6 h) of 222000 ± 23000 ng/g. Further, the “metapristone in rat brain” value in data set [3] was “detected”.
